In experiment [1] the target is T1, AHR (Homo sapiens, UniProt P35869).
T1 sequence (P35869 11-848): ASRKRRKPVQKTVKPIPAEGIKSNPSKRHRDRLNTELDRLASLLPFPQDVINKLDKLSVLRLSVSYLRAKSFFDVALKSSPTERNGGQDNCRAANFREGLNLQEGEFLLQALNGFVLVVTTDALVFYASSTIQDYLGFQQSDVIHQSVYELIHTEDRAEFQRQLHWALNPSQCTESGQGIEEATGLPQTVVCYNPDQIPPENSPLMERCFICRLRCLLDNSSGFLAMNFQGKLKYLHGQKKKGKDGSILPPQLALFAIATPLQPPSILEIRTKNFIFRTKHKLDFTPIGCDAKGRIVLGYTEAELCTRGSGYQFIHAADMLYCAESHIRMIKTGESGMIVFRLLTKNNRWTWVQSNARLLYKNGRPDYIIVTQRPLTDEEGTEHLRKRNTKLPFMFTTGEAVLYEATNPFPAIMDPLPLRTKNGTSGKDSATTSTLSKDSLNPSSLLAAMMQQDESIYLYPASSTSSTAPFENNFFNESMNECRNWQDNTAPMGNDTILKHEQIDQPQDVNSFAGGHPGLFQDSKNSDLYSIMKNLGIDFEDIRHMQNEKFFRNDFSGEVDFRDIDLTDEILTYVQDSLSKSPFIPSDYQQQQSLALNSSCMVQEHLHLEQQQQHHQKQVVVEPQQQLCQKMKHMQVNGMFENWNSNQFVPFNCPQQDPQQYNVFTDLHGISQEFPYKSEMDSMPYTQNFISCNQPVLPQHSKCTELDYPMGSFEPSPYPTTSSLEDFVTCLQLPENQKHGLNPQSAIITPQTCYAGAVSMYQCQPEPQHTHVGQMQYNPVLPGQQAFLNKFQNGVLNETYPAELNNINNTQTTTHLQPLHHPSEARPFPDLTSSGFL
Put plainly: In vitro assay 1: antagonism in human cell line (transactivation assay, U87 cells prestimulated with kynurenic acid, DRE firefly luciferase reporter). Type of experiment: cell-based. To be noted: 150 uM kynurenic acid, 20 hours, read-out: Assay 1: AHR-luc Hum Antagonism IC50. Set-up: host or cells: U87 glioblastoma cells, stably transfected with DRE firefly luciferase and renilla reporter constructs. The procedure:
(§1) Transactivation Assay in Human Cell Line (In Vitro Assays 1 and 2)
(§2) Transactivation assays were carried out in U87 glioblastoma cells (ATCC) endogenously expressing AHR. In addition the cells were stably transfected with an AHR inducible firefly luciferase reporter gene construct that carried AHR-binding sites (DRE) in its promoter and a renilla reporter gene construct with constitutively active promoter. Kynurenic acid is an endogenous AHR activating ligand and was used to prestimulate test cells prior to testing the antagonistic properties of compounds.
In Vitro Assay 1: Antagonism in Human Cell Line
Normalization was done by positive and negative controls.

Experiment [2] has as its target T1, AHR. The experiment can be described thus: In vitro assay 2: agonism in human cell line (transactivation assay, U87 cells, DRE firefly luciferase reporter). In kind it is cell-based. On the set-up: host or cells: U87 glioblastoma cells, stably transfected with DRE firefly luciferase and renilla reporter constructs. The settings on record: no kynurenic acid, 20 hours, read-out: Assay 2: AHR-luc Hum Agonism IC50. The protocol: as §1, §2
In Vitro Assay 2: Agonism in Human Cell Line
As positive activation control cells were incubated with 300 uM kynurenic acid. Normalization was done by positive and negative controls.

As to `CC(NC(=O)c1cc(-c2ccc(Cl)cc2)nn(-c2cccnc2)c1=O)C(O)C(F)(F)F` (single isomer, unassigned) [Example 299, 6-(4-Chlorophenyl)-3-oxo-2-(pyridin-3-yl)-N-(4,4,4-trifluoro-3-hydroxybutan-2-yl)-2,3-dihydropyridazine-4-carboxamide], the IC50 in experiment [1] was 13.3 nM; in experiment [2] it was more than 20000 nM.
Consider `O=C(NC[C@H](O)C(F)(F)F)c1cc(-c2ccc(Cl)cc2)nn(-c2cnoc2)c1=O` [Example 235, 6-(4-Chlorophenyl)-2-(1,2-oxazol-4-yl)-3-oxo-N-[(2S)-3,3,3-trifluoro-2-hydroxypropyl]-2,3-dihydropyridazine-4-carboxamide], for which the figures for the IC50 in experiment [1] and in experiment [2] were 8.87 nM and more than 20000 nM, respectively.
In the case of `O=C(NC[C@H](O)CO)c1cc(-c2ccc(C(F)(F)F)cc2)nn(-c2cccnc2)c1=O` [Example 114, N-[(2S)-2,3-Dihydroxypropyl]-3-oxo-2-(pyridin-3-yl)-6-[4-(trifluoromethyl)phenyl]-2,3-dihydropyridazine-4-carboxamide], the IC50 in experiment [1] was 85.5 nM; in experiment [2] it was more than 20000 nM.
In the case of `CC(NC(=O)c1cc(-c2ccc(Cl)cc2)nn(-c2cccnc2)c1=O)C(O)C(F)(F)F` (single isomer, unassigned) [Example 298, 6-(4-Chlorophenyl)-3-oxo-2-(pyridin-3-yl)-N-(4,4,4-trifluoro-3-hydroxybutan-2-yl)-2,3-dihydropyridazine-4-carboxamide], the IC50 was 3.69 nM in experiment [1] and more than 20000 nM in experiment [2].
Taken in the same sequence, the figures for `C[C@H](O)[C@H](C)NC(=O)c1cc(-c2ccc(OC(F)F)cc2)nn(-c2cccnc2)c1=O` [Example 334, 6-[4-(Difluoromethoxy)phenyl]-N-[(2S,3S)-3-hydroxybutan-2-yl]-3-oxo-2-(pyridin-3-yl)-2,3-dihydropyridazine-4-carboxamide] were 60.2 nM and more than 20000 nM.
Consider `C[C@H](NC(=O)c1cc(-c2ccc(C(F)(F)F)cc2)nn(-c2cnsc2)c1=O)C(C)(C)O` [Example 196, N-[(2S)-3-Hydroxy-3-methylbutan-2-yl]-3-oxo-2-(1,2-thiazol-4-yl)-6-[4-(trifluoromethyl)phenyl]-2,3-dihydropyridazine-4-carboxamide], for which the IC50 in experiment [1] is 0.418 nM; in experiment [2], more than 20000 nM.
As for `C[C@@H](CO)NC(=O)c1cc(-c2ccc(N(C)C)cc2)nn(-c2cccnc2)c1=O` [Example 191, 6-[4-(Dimethylamino)phenyl]-N-[(2S)-1-hydroxypropan-2-yl]-3-oxo-2-(pyridin-3-yl)-2,3-dihydropyridazine-4-carboxamide], the IC50 was 3.35 nM in experiment [1] and more than 20000 nM in experiment [2].
Regarding `Cn1cc(-n2nc(-c3ccc(Cl)cc3)cc(C(=O)N[C@@H]3COC[C@@H]3O)c2=O)cn1` (racemic) [Example 43, 6-(4-Chlorophenyl)-N-[(cis)-4-hydroxytetrahydrofuran-3-yl]-2-(1-methyl-1H-pyrazol-4-yl)-3-oxo-2,3-dihydropyridazine-4-carboxamide], the IC50 in experiment [1] was 23 nM; in experiment [2], more than 20000 nM.
In the case of `CC(C)(O)C(NC(=O)c1cc(-c2ccc(Cl)cc2)nn(-c2cncnc2)c1=O)C(F)(F)F` (single isomer, unassigned) [Example 187, 6-(4-Chlorophenyl)-3-oxo-2-(pyrimidin-5-yl)-N-(1,1,1-trifluoro-3-hydroxy-3-methylbutan-2-yl)-2,3-dihydropyridazine-4-carboxamide], the concentration for half-maximal inhibition (IC50) was 33.5 nM in experiment [1] and more than 20000 nM in experiment [2].
With `O=C(N[C@H]1COC[C@H]1O)c1cc(-c2ccc(OC(F)(F)F)cc2)nn(-c2cccnc2)c1=O` (relative stereo) [Example 157, N-[(cis)-4-Hydroxytetrahydrofuran-3-yl]-3-oxo-2-(pyridin-3-yl)-6-[4-(trifluoromethoxy)phenyl]-2,3-dihydropyridazine-4-carboxamide], the IC50 in experiment [1] is 39.3 nM; in experiment [2], more than 20000 nM.
Consider `Cn1cc(-n2nc(-c3ccc(OC(F)(F)F)cc3)cc(C(=O)NCC(C)(C)O)c2=O)cn1` [Example 59, N-(2-Hydroxy-2-methylpropyl)-2-(1-methyl-1H-pyrazol-4-yl)-3-oxo-6-[4-(trifluoromethoxy)phenyl]-2,3-dihydropyridazine-4-carboxamide], for which the IC50 in experiment [1] is 20 nM; in experiment [2], more than 20000 nM.
For the compound `O=C(N[C@H]1CCCC(F)(F)[C@@H]1O)c1cc(-c2ccc(Cl)cc2)nn(-c2cccnc2)c1=O` (single isomer, unassigned; enantiomer 2) [Example 145, 6-(4-Chlorophenyl)-N-[(trans)-3,3-difluoro-2-hydroxycyclohexyl]-3-oxo-2-(pyridin-3-yl)-2,3-dihydropyridazine-4-carboxamide, Enantiomer 2], the IC50 in experiment [1] is 6.9 nM; in experiment [2] it was more than 20000 nM.
For `C[C@@H](NC(=O)c1cc(-c2ccc(Cl)cc2)nn(-c2cn[nH]c2)c1=O)C(C)(C)O` [Example 325, 6-(4-Chlorophenyl)-N-[(2R)-3-hydroxy-3-methylbutan-2-yl]-3-oxo-2-(1H-pyrazol-4-yl)-2,3-dihydropyridazine-4-carboxamide], in that order: 242 nM and more than 20000 nM.
With `O=C(N[C@H](CO)C(F)(F)F)c1cc(-c2ccc(Cl)cc2)nn(-c2cnn(C(F)F)c2)c1=O` [Example 236, 6-(4-Chlorophenyl)-2-[1-(difluoromethyl)-1H-pyrazol-4-yl]-3-oxo-N-[(2R)-1,1,1-trifluoro-3-hydroxypropan-2-yl]-2,3-dihydropyridazine-4-carboxamide], the IC50 is 9.03 nM in experiment [1] and more than 20000 nM in experiment [2].
Taken in the same sequence, the figures for `C[C@@H](NC(=O)c1cc(-c2ccc(Cl)cc2)nn(-c2cncnc2)c1=O)C(C)(C)O` [Example 265, 6-(4-Chlorophenyl)-N-[(2R)-3-hydroxy-3-methylbutan-2-yl]-3-oxo-2-(pyrimidin-5-yl)-2,3-dihydropyridazine-4-carboxamide] were 48.8 nM and more than 20000 nM.
Taken in the same sequence, the figures for `CC(C)(O)CNC(=O)c1cc(-c2ccc(CF)cc2)nn(-c2cccnc2)c1=O` [Example 286, 6-[4-(Fluoromethyl)phenyl]-N-(2-hydroxy-2-methylpropyl)-3-oxo-2-(pyridin-3-yl)-2,3-dihydropyridazine-4-carboxamide] were 672 nM and more than 20000 nM.
Consider `O=C(NCC1(O)CCC1)c1cc(-c2ccc(Cl)cc2)nn(-c2cnsc2)c1=O` [Example 200, 6-(4-Chlorophenyl)-N-[(1-hydroxycyclobutyl)methyl]-3-oxo-2-(1,2-thiazol-4-yl)-2,3-dihydropyridazine-4-carboxamide], for which the IC50 in experiment [1] was 0.734 nM; in experiment [2], more than 20000 nM.
Consider `Cc1cncc(-n2nc(-c3ccc(Cl)cc3)cc(C(=O)N[C@@H](C)CO)c2=O)c1` [Example 304, 6-(4-Chlorophenyl)-N-[(2S)-1-hydroxypropan-2-yl]-2-(5-methylpyridin-3-yl)-3-oxo-2,3-dihydropyridazine-4-carboxamide], for which the IC50 in experiment [1] was 349 nM; in experiment [2] it was more than 20000 nM.
For `C[C@@H](CO)NC(=O)c1cc(-c2ccc(Cl)cc2)nn(-c2ccnnc2)c1=O` [Example 177, 3-(4-Chlorophenyl)-N-[(2S)-1-hydroxypropan-2-yl]-6-oxo-6H-1,4′-bipyridazine-5-carboxamide], in that order: 465 nM and more than 20000 nM.
As to `CC(C)(O)CNC(=O)c1cc(-c2ccc(C(F)(F)F)cc2)nn(-c2cnsc2)c1=O` [Example 208, N-(2-Hydroxy-2-methylpropyl)-3-oxo-2-(1,2-thiazol-4-yl)-6-[4-(trifluoromethyl)phenyl]-2,3-dihydropyridazine-4-carboxamide], the values for the IC50 in experiment [1] and in experiment [2] were 1.22 nM and more than 20000 nM, respectively.
On to `O=C(N[C@H]1COC[C@H]1O)c1cc(-c2ccc(C(F)F)nc2)nn(-c2cccnc2)c1=O` (single isomer, unassigned) [Example 183, 6-[6-(Difluoromethyl)pyridin-3-yl]-N-[(cis)-4-hydroxytetrahydrofuran-3-yl]-3-oxo-2-(pyridin-3-yl)-2,3-dihydropyridazine-4-carboxamide], for which the IC50 in experiment [1] was 1970 nM; in experiment [2] it was more than 20000 nM.
